The results in this text go back to article PMC10175918 (Communications Biology, 2023).

Where two headings read alike, the source gives them in different places.

Holding throughout (test): TGFα-shedding assay-based GPCR screening with chimeric Gα subunit proteins
Holding throughout (assay type): cell-based

In experiment [1] the target is T1, 348 GPCRs (Homo sapiens, UniProt O15218).
T1 construct: expressed in transfected cells; host or cells: HEK293A
To be noted: 10µM, Favipiravir 100μM.

The target of experiment [2] is T2, 348 GPCRs (Homo sapiens, UniProt P35348).
T2 construct: expressed in transfected cells; host or cells: HEK293A
T2 sequence (P35348 1-466): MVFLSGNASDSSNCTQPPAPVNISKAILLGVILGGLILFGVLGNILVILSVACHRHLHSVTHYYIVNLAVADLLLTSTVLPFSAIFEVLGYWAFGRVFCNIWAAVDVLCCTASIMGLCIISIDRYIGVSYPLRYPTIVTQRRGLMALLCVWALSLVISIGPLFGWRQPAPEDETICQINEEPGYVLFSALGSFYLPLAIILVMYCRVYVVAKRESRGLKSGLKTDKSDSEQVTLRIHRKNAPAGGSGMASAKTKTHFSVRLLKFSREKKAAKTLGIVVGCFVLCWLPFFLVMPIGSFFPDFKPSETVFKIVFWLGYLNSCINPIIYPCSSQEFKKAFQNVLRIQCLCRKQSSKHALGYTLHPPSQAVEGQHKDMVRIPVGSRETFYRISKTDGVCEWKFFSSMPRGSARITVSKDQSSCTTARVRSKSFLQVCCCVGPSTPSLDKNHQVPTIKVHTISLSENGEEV

In experiment [3] the target is T3, 348 GPCRs (Homo sapiens, UniProt P47804).
T3 construct: expressed in transfected cells; host or cells: HEK293A
T3 sequence (P47804 1-291): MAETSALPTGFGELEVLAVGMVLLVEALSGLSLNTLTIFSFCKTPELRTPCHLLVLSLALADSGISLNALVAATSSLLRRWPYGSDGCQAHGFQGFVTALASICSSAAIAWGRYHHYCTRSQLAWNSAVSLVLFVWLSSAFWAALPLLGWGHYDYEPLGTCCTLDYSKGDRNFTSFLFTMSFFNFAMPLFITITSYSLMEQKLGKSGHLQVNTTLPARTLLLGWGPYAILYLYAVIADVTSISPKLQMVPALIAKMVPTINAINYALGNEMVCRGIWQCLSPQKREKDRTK
Particulars: 10µM, Favipiravir 100μM.

In experiment [4] the target is T4, 348 GPCRs (Homo sapiens, UniProt P51684).
T4 construct: expressed in transfected cells; host or cells: HEK293A
T4 sequence (P51684 1-374): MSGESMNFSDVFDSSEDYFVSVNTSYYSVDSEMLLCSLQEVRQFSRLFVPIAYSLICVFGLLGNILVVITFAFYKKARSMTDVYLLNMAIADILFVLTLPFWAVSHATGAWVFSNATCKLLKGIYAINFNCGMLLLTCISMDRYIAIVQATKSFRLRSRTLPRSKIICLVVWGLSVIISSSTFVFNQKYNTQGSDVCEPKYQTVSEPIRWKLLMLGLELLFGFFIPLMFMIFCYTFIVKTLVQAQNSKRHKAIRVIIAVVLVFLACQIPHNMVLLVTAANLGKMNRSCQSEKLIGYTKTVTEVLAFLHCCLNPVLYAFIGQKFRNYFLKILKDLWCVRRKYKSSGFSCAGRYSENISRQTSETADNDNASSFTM
To be noted: 10µM, Favipiravir 100μM.

Experiment [5] concerns the target T5, 348 GPCRs (Homo sapiens, UniProt P55085).
T5 construct: expressed in transfected cells; host or cells: HEK293A
T5 sequence (P55085 26-397): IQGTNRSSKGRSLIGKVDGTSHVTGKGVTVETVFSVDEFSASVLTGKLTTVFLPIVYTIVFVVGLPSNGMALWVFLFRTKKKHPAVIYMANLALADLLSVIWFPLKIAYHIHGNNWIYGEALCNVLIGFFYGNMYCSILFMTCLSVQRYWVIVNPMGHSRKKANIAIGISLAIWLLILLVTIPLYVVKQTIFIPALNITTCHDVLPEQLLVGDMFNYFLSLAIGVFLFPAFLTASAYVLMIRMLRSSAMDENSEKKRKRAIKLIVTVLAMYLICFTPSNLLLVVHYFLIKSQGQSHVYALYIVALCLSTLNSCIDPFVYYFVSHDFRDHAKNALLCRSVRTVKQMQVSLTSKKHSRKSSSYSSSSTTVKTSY
To be noted: 10µM, Favipiravir 100μM.

Experiment [6] addresses T6, 348 GPCRs (Homo sapiens, UniProt Q02643).
T6 construct: expressed in transfected cells; host or cells: HEK293A
T6 sequence (Q02643 23-423): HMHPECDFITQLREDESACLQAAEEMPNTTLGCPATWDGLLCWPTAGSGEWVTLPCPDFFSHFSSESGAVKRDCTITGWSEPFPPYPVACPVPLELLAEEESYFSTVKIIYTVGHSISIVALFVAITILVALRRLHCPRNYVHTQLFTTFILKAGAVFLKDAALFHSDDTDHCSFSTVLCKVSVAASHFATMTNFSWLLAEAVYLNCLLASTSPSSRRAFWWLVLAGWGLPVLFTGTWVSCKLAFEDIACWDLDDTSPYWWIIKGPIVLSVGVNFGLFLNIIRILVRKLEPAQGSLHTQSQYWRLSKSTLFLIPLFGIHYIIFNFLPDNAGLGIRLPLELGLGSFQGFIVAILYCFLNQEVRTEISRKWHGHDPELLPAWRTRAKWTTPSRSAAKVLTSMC
Particulars: 10µM, Favipiravir 100μM.

Experiment [7] has as its target T7, 348 GPCRs (Homo sapiens, UniProt Q86VZ1).
T7 construct: expressed in transfected cells; host or cells: HEK293A

The target in experiment [8] is 348 GPCRs (Homo sapiens, UniProt Q8TDS4).
Experiment [9] concerns the target T8, 348 GPCRs (Homo sapiens, UniProt Q99680).
T8 construct: expressed in transfected cells; host or cells: HEK293A
Particulars: 10µM, Favipiravir 100μM.

[10] abbreviates: read-out: % GPCR activation compared to TPA, GPR182 (G protein-coupled receptor 182).
Where [11] appears, read: read-out: % GPCR activation compared to TPA, GPCR α1A (adrenoceptor alpha 1A).
[12] abbreviates: read-out: % GPCR activation compared to TPA, RGR (Retinal G protein coupled receptor).
[13] abbreviates: read-out: % GPCR activation compared to TPA, CCR6 (C-C motif chemokine receptor 6).
Where [14] appears, read: read-out: % GPCR activation compared to TPA, F2RL1 (coagulation factor II (thrombin) receptor-like 1).
[15] abbreviates: read-out: % GPCR activation compared to TPA, GHRHR (growth hormone releasing hormone receptor).
[16] abbreviates: read-out: % GPCR activation compared to TPA, GPCR P2Y8 (purinergic receptor P2Y, G-protein coupled, 8).
Where [17] appears, read: HCA2, read-out: % GPCR activation compared to TPA, GPCR GPR109A (hydroxycarboxylic acid receptor 2 (HCA2)).
[18] abbreviates: read-out: % GPCR activation compared to TPA, GPR22 (G Protein-Coupled Receptor 22).
The mark [19] stands for this setting: GPR182 (G protein-coupled receptor 182), read-out: % GPCR activation compared to TPA.
Setting [20] is: RGR (Retinal G protein coupled receptor), read-out: % GPCR activation compared to TPA.
[21] abbreviates: CCR6 (C-C motif chemokine receptor 6), read-out: % GPCR activation compared to TPA.
Setting [22] is: F2RL1 (coagulation factor II (thrombin) receptor-like 1), read-out: % GPCR activation compared to TPA.
[23] abbreviates: GHRHR (growth hormone releasing hormone receptor), read-out: % GPCR activation compared to TPA.
Where [24] appears, read: GPR22 (G Protein-Coupled Receptor 22), read-out: % GPCR activation compared to TPA.
The mark [25] stands for this setting: GPCR α1A (adrenoceptor alpha 1A), read-out: % GPCR activation compared to TPA.
The mark [26] stands for this setting: GPCR P2Y8 (purinergic receptor P2Y, G-protein coupled, 8), read-out: % GPCR activation compared to TPA.
Where [27] appears, read: HCA2, GPCR GPR109A (hydroxycarboxylic acid receptor 2 (HCA2)), read-out: % GPCR activation compared to TPA.

T8 sequence (Q99680 whole entry): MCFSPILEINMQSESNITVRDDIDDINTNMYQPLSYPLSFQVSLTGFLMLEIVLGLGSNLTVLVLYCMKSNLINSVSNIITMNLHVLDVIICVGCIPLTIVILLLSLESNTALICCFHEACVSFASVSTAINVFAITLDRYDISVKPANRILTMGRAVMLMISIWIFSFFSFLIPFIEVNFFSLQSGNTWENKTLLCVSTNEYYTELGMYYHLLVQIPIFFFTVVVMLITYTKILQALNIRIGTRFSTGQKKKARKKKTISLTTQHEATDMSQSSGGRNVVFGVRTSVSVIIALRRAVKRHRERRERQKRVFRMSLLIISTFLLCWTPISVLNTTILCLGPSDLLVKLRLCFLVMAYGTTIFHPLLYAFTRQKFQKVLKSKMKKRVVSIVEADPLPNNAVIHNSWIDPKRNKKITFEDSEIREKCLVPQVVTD
T1 sequence (O15218 whole entry): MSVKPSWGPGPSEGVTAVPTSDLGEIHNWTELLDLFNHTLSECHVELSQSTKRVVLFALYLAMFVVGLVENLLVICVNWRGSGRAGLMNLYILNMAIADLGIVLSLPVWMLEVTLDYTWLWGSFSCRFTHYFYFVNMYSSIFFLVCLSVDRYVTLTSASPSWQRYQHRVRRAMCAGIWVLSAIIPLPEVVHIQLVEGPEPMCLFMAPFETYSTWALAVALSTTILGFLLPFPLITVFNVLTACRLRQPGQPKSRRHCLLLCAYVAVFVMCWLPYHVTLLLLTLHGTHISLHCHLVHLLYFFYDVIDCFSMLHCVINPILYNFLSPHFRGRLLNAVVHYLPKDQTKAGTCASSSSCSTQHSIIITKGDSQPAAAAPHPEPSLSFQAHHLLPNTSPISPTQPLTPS
T7 sequence (Q86VZ1 whole entry): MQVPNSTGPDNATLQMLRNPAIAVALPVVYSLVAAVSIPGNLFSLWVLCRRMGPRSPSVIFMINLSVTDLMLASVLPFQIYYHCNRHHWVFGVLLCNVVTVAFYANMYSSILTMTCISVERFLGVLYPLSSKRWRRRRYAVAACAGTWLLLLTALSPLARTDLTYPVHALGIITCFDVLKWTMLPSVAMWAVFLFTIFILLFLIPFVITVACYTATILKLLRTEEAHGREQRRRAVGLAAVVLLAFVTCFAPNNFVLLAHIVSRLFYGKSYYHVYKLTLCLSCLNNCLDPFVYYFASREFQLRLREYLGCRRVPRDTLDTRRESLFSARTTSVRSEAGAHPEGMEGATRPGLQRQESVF
348 GPCRs (Homo sapiens, UniProt Q8TDS4), sequence (Q8TDS4 whole entry): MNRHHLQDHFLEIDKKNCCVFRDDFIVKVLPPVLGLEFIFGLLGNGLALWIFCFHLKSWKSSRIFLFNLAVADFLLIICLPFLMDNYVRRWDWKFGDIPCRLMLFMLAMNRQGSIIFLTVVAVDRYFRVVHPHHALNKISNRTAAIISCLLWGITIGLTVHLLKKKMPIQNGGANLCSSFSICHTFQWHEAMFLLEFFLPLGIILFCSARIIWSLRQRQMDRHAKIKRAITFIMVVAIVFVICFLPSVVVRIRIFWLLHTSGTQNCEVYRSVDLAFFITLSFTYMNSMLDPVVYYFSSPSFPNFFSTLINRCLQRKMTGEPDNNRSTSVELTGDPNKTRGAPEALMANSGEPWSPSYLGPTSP

Consider `CC(C)OC(=O)[C@H](C)N[P@](=O)(OC[C@H]1O[C@@H](n2ccc(=O)[nH]c2=O)[C@](C)(F)[C@@H]1O)Oc1ccccc1` [sofosbuvir], for which the activation at 100 µM in experiment [1] (setting [10]) is 0.0893%; in [3] (setting [12]), -3.06%; in [6] (setting [15]), -2.19%; in [9] (setting [18]), 0.408%. Besides, the activation at 10 µM in experiment [2] (setting [11]) was 0.301%; in [4] (setting [13]) it was -3.43%; in experiment [5] (setting [14]), 0.0736%; in [7] (setting [16]) it was -3.86%; in experiment [8] (setting [17]), -29.6%.

For `NC(=O)c1nc(F)cnc1O` [favipiravir, 6-fluoro-3-hydroxy-2-pyrazinecarboxamide], the activation at 100 µM in experiment [1] (setting [19]) is -0.288%; in experiment [2] (GPCR α1A (adrenoceptor alpha 1A), 100μM, read-out: % GPCR activation compared to TPA) it was 0.574%; in experiment [3] (setting [20]) it was -1.43%; in [6] (setting [23]) it was 6.96%; in experiment [7] (GPCR P2Y8 (purinergic receptor P2Y, G-protein coupled, 8), 100μM, read-out: % GPCR activation compared to TPA) it was 1.7%; in experiment [8] (HCA2, GPCR GPR109A (hydroxycarboxylic acid receptor 2 (HCA2)), 100μM, read-out: % GPCR activation compared to TPA), 1.41%. Also, the activation at 100 µM in [9] (setting [24]) was -0.704%. In addition, the activation at 10 µM is 0.146% in experiment [4] (setting [21]) and -2.7% in [5] (setting [22]).

In the case of `CCC(CC)COC(=O)[C@H](C)N[P@](=O)(OC[C@H]1O[C@@](C#N)(c2ccc3c(N)ncnn23)[C@H](O)[C@@H]1O)Oc1ccccc1` [remdesivir], the activation at 100 µM in experiment [1] (setting [10]) was 2.44%; in experiment [3] (setting [12]), -0.554%; in experiment [6] (setting [15]) it was 5.92%; in [9] (setting [18]), -1.09%. Also, the activation at 10 µM is 0.479% in experiment [2] (setting [11]); 2.34% in experiment [4] (setting [13]); -1.25% in experiment [5] (setting [14]); 6.38% in [7] (setting [16]); 2.36% in experiment [8] (setting [17]).

For the molecule `N#C[C@@]1(c2ccc3c(N)ncnn23)O[C@H](CO)[C@@H](O)[C@H]1O` [GS441524], the activation at 100 µM in experiment [1] (setting [19]) was 0.124%; in experiment [3] (setting [20]) it was -2.11%; in experiment [6] (setting [23]), 1.38%; in experiment [9] (setting [24]), 0.701%. The activation at 10 µM in experiment [2] (setting [25]) was found to be 0.0114%; in [4] (setting [21]), 0.67%; in experiment [5] (setting [22]) it was 0.132%; in experiment [7] (setting [26]) it was 1.71%; in [8] (setting [27]), 0.689%.

As to `CC(C)C(=O)OC[C@H]1O[C@@H](n2ccc(NO)nc2=O)[C@H](O)[C@@H]1O` [molnupiravir], the activation at 100 µM was 0.0693% in experiment [1] (setting [19]), -1.3% in [3] (setting [20]), -0.966% in experiment [6] (setting [23]) and -2.13% in [9] (setting [24]). Besides, the activation at 10 µM in experiment [2] (setting [25]) was 0.335%; in experiment [4] (setting [21]), -2.53%; in experiment [5] (setting [22]), -1.8%; in [7] (setting [26]), -9.1%; in experiment [8] (setting [27]), -37.5%.
